Measurements: patent US20210186934A1, “COMPOSITIONS AND USES THEREOF” (LIVERPOOL JOHN MOORES UNIVERSITY, priority 2018, published 2021)

What was measured:
Assay type in all cases: cell-based, human
miR-184 [1] = test: Induction of miR-184 in HPEK by differentiation agents (sqRT-PCR); details: 1 or 5 days
Procedure: FIG. 1: Induction of miR-184 during Ca^2+-dependent HPEK differentiation. […] Data shown represent means +SEM from 3 independent experiments. Expression was normalized to SNORD72 for miR-184 and GAPDH for IVL. Values are presented relative to 0.07 mM Ca^2+ or DMSO-treated controls;
Human progenitor epidermal keratinocytes (HPEK) were isolated from human foreskin or purchased from CellnTec (Bern, Switzerland). For isolation, tissues were washed with phosphate-buffered saline, trimmed of any subcutaneous fat, connective tissues and blood vessels before digestion with 20 mg/ml dispase (Sigma) at 4° C. overnight with further digestion for 1 hour at room temperature. Thereafter, the epidermis was separated and incubated in 0.5% TrpLE (Thermofisher scientific, Cheshire, UK) for 5 min at 37° C., 5% CO2. Keratinocytes were centrifuged (1200 rpm for 5 min) and re-suspended in CnT-Prime (CellnTec) supplemented with 1% penicillin/streptomycin/amphotericin B (PSA) and IsoBoost supplement CnT-ISO (CellnTec) to enhance isolation efficiency. Culture medium was changed every 2-3 days until cells reached 80% confluence with PSA exclusion from the culture medium after the first passage. Keratinocytes were sub-cultured using CnT-Accutase (CellnTec) and re-cultured at 4×10^3 cells per cm^2. For differentiation, keratinocytes were at 3×10^5/well of a 6-well plate in CnT-Prime and allowed to reach confluence before adjusting the medium to 1.5 mM calcium using CaCl2.
(§1) Total RNA was isolated from cells using the AllPrep DNA/RNA/miRNA Universal kit (Qiagen, Manchester, UK). RNA concentration was determined using a NanoDrop™ 2000c. Complementary DNA (cDNA) was synthesised from 400 ng of RNA using the miScript II RT kit (Qiagen) with HiFlex buffer. PCR amplifications were performed with Quantifast SYBR Green and QuantiTect miRNA/universal primers or RT^2 mRNA primer assays, all from Qiagen. Thermocycling was performed on a Rotor-Gene® as follows: 95° C. for 15 min, followed by 40 cycles of 94° C. for 15 s, 55° C. for 30 s and 70° C. for 30 s. Relative expression of miRNA and mRNA determined using the 2^−ΔΔCT relative quantification method (Livak and Schmittgen, 2001).
(§2) Expression of miR-184 in HPEK was evaluated and maintained in parallel cultures under low (0.07 mM) to sustain proliferation or high (1.5 mM) extracellular Ca^2+ to promote differentiation.

involucrin (IVL) = test: IVL expression in HPEK treated with differentiation agents (sqRT-PCR); details: 100 nM, 5 d, normalized to GAPDH
Procedure: FIG. 1: Induction of miR-184 during Ca^2+-dependent HPEK differentiation. (a) HPEKs grown to confluence were treated with high (1.5 mM) Ca^2+, 100 nM 1,25(OH)D3, 100 nM PMA or dimethyl sulfoxide (DMSO) vehicle for 1 or 5 days (d). (b) Upregulation of the HPEK differentiation marker involucrin (IVL) during 5 d exposure to 1.5 mM Ca^2+, 100 nM 1,25(OH)D3 or 100 nM PMA. Data shown represent means +SEM from 3 independent experiments. Expression was normalized to SNORD72 for miR-184 and GAPDH for IVL. Values are presented relative to 0.07 mM Ca^2+ or DMSO-treated controls;
Human progenitor epidermal keratinocytes (HPEK) were isolated from human foreskin or purchased from CellnTec (Bern, Switzerland). […]
Total RNA was isolated from cells using the AllPrep DNA/RNA/miRNA Universal kit (Qiagen, Manchester, UK). RNA concentration was determined using a NanoDrop™ 2000c. […] PCR amplifications were performed with Quantifast SYBR Green and QuantiTect miRNA/universal primers or RT^2 mRNA primer assays, all from Qiagen. […] Relative expression of miRNA and mRNA determined using the 2^−ΔΔCT relative quantification method (Livak and Schmittgen, 2001).
as §2

ORAI1 = ORAI1 expression in HPEK; details: data not shown
Text: To determine whether Ca^2+-dependent induction of miR-184 was associated with SOCE, HPEK were maintained in high Ca^2+ for 5 days in the presence of the SOCE blocker gadolinium (III) Gd^3+ or the pharmacologic ORAI1 inhibitor BTP2. Alternatively, ORAI1 expression was ablated using short-interfering RNA (siRNA) that was transferred into the cells using nucleofection 1 d prior to Ca^2+ elevation.

miR-184 [2] = test: miR-184 induction in scratched HPEK monolayers; details: low Ca2+ (0.07 mM), 5 days
Procedure: (§3) FIG. 6: Induction of miR-184 in scratched monolayers. Confluent HPEK monolayers were scratched and cells harvested after 5 days in low (0.07 mM) or high (1.5 mM) Ca^2+ media as indicated. The SOCE blockers Gd^3+ and BTP2 and were added 1 h after scratching and refreshed after day 2. (a-d) miR-184 expression normalized to SNORD72. (c-d) LncRNA UCA1 expression normalised to GAPDH; and
Total RNA was isolated from cells using the AllPrep DNA/RNA/miRNA Universal kit (Qiagen, Manchester, UK). RNA concentration was determined using a NanoDrop™ 2000c. Complementary DNA (cDNA) was synthesised from 400 ng of RNA using the miScript II RT kit (Qiagen) with HiFlex buffer. PCR amplifications were performed with Quantifast SYBR Green and QuantiTect miRNA/universal primers or RT^2 mRNA primer assays, all from Qiagen. […] Relative expression of miRNA and mRNA determined using the 2^−ΔΔCT relative quantification method (Livak and Schmittgen, 2001).
The inventors maintained the HPEK in low Ca^2+ (0.07 mM) medium and allowed them to approach confluence in 6-well plates prior to wounding. Cells were harvested 5 days later and miR-184 expression assessed as described above. […] In contrast, when extracellular Ca^2+ was raised to 1.5 mM to 5 days to evoke HPEK differentiation, only a relatively modest 10-fold rise in miR-184 expression was detected (FIG. 6d). […]

UCA1 = test: LncRNA UCA1 induction in scratched HPEK monolayers; details: 5 days
Procedure: as §3, §1
The long non-coding RNA UCA1 (urothelial carcinoma associated 1) has been identified as a competing endogenous RNA (ceRNA) with four predicted miR-184-binding sites (Zhou et al., 2017). The expression of UCA1 in the HPEK was therefore examined. […]

Molecule	effect on miR-184 expression (miR-184 [1]; 100 nM, vs DMSO)	IVL expression (involucrin (IVL))	effect on ORAI1 expression (ORAI1)	effect on scratch-evoked induction of miR-184 (miR-184 [2])	reduction of UCA1 induction (UCA1)	further results
CCCCCCCCCCCCCC(=O)O[C@@H]1[C@@H](C)[C@@]2(O)[C@@H](C=C(CO)C[C@]3(O)C(=O)C(C)=C[C@@H]23)[C@@H]2C(C)(C)[C@]12OC(C)=O [PMA, phorbol 12-myristate 13-acetate]	did not promote miR-184 expression	evoked robust IVL expression	–	–	–	effect on miR-184 expression (miR-184 [1]; 100 nM, vs DMSO, listed as phorbol ester): neither phorbol ester nor 1, 25-dihydroxyvitamin D3 had any effect
Cc1nnsc1C(=O)Nc1ccc(-n2nc(C(F)(F)F)cc2C(F)(F)F)cc1 [BTP2]	–	–	little effect on ORAI1 expression	abolished the induction of miR-184	around 50%	–
C=C1/C(=C\C=C2/CCC[C@]3(C)[C@@H]([C@H](C)CCCC(C)(C)O)CC[C@@H]23)C[C@@H](O)C[C@@H]1O [1, 25-(OH)2D3, 1, 25-dihydroxyvitamin D3]	did not promote miR-184 expression	evoked robust IVL expression	–	–	–	effect on miR-184 expression (miR-184 [1]; 100 nM, vs DMSO, listed as 1, 25-dihydroxyvitamin D3): neither phorbol ester nor 1, 25-dihydroxyvitamin D3 had any effect
IFNγ: Interferon gamma, reported to trigger keratinocyte differentiation	–	–	–	–	–	effect on miR-184 expression (miR-184 [1]; 10 ng/ml, data not shown): no induction of miR-184 was observed
[Cl][Gd]([Cl])[Cl] [Gd^3+, Gadolinium(III) chloride]	–	–	little effect on ORAI1 expression	abolished the induction of miR-184	around 50%	–
